How the values were obtained:
Type in all cases: cell-based
[1] = tested on: methicillin-resistant Staphylococcus epidermidis (MRSE); test: MIC, two-fold agar dilution (CLSI), clinical isolates
Procedure, shortened: (§1)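 CLSI two-fold agar dilution; MIC of test samples read per tested strain.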

[2] = tested on: Moraxella catarrhalis (BCA); test: as above
Procedure, shortened: as §1

[3] = tested on: Enterococcus faecium (EFM); test: as above
Procedure, shortened: as §1

[4] = tested on: Enterococcus faecalis (EFA); test: as above
Procedure, shortened: as §1

[5] = tested on: Escherichia coli (including ESBLs, non-ESBLs); test: as above
Procedure, shortened: as §1

[6] = tested on: methicillin-sensitive Staphylococcus epidermidis (MSSE); test: as above
Procedure, shortened: as §1

[7] = tested on: methicillin-sensitive Staphylococcus aureus (MSSA); test: as above
Procedure, shortened: as §1

[8] = tested on: Streptococcus pneoumoniae (SPN); test: as above
Procedure, shortened: as §1

[9] = tested on: methicillin-resistant Staphylococcus aureus (MRSA); test: as above
Procedure, shortened: as §1

[10] = tested on: HCT-116 colorectal cancer cell line; test: CCK-8 proliferation inhibition; details: Homo sapiens, HCT-116, 72 h, concentration of 30 μM; 72 hours; CCK-8; read-out: HCT116 inhibition rate/%
Procedure, shortened: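 Proliferation over 72 hours of compound treatment was measured with CCK-8 against a 1‰ DMSO control.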

CCCC[C@H](CC(=O)NO)C(=O)N1CC2(CC2)C[C@H]1C(=O)Nc1cc(C)on1 [Example 56, (S)-5-((R)-2-(2-(hydroxyamino)-2-oxoethyl)hexanoyl)-N-(5-methylisoxazol-3-yl)-5-spiro[2.4]heptane-6-carboxamide]
4 µg/mL: Anti-bacterial activity (MIC), strain BCA 14-1 ([2]; clinical isolate BCA 14-1) | Anti-bacterial activity (MIC), strain BCA 14-4 ([2]; clinical isolate BCA 14-4) | Anti-bacterial activity (MIC), strain EFM 15-2 ([3]; clinical isolate EFM 15-2) | Anti-bacterial activity (MIC), strain EFM 15-4 ([3]; clinical isolate EFM 15-4) | Anti-bacterial activity (MIC), strain EFM 15-6 ([3]; clinical isolate EFM 15-6)
16 µg/mL: Anti-bacterial activity (MIC), strain EFA 15-1 ([4]; clinical isolate EFA 15-1) | Anti-bacterial activity (MIC), strain EFA 15-2 ([4]; clinical isolate EFA 15-2) | Anti-bacterial activity (MIC), strain EFA 15-3 ([4]; clinical isolate EFA 15-3) | Anti-bacterial activity (MIC), strain EFA 15-4 ([4]; clinical isolate EFA 15-4) | Anti-bacterial activity (MIC), strain EFA 15-5 ([4]; clinical isolate EFA 15-5) | Anti-bacterial activity (MIC), strain EFA 15-6 ([4]; clinical isolate EFA 15-6) | Anti-bacterial activity (MIC), strain EFA 15-9 ([4]; clinical isolate EFA 15-9)
0.06 µg/mL: Anti-bacterial activity (MIC), strain MSSE 15-4 ([6]; clinical isolate MSSE 15-4) | Anti-bacterial activity (MIC), strain MSSE 15-5 ([6]; clinical isolate MSSE 15-5) | Anti-bacterial activity (MIC), strain MSSE 15-6 ([6]; clinical isolate MSSE 15-6)
0.5 µg/mL: Anti-bacterial activity (MIC), strain MRSE 15-7 ([1]; clinical isolate MRSE 15-7) | Anti-bacterial activity (MIC), strain MRSA 15-3 ([9]; clinical isolate MRSA 15-3)
1 µg/mL: Anti-bacterial activity (MIC), strain BCA 14-5 ([2]; clinical isolate BCA 14-5) | Anti-bacterial activity (MIC), strain EFM 15-1 ([3]; clinical isolate EFM 15-1) | Anti-bacterial activity (MIC), strain EFM 15-3 ([3]; clinical isolate EFM 15-3) | Anti-bacterial activity (MIC), strain EFM 15-5 ([3]; clinical isolate EFM 15-5) | Anti-bacterial activity (MIC), strain SPN 16-4 ([8]; clinical isolate SPN 16-4)
0.25 µg/mL: Anti-bacterial activity (MIC), strain MRSE 15-3 ([1]; clinical isolate MRSE 15-3) | Anti-bacterial activity (MIC), strain MSSE 15-3 ([6]; clinical isolate MSSE 15-3) | Anti-bacterial activity (MIC), strain MSSA 15-3 ([7]; clinical isolate MSSA 15-3) | Anti-bacterial activity (MIC), strain MSSA 15-4 ([7]; clinical isolate MSSA 15-4) | Anti-bacterial activity (MIC), strain MSSA 15-6 ([7]; clinical isolate MSSA 15-6) | Anti-bacterial activity (MIC), strain MRSA 15-1 ([9]; clinical isolate MRSA 15-1)
8 µg/mL: Anti-bacterial activity (MIC), strain BCA 14-6 ([2]; clinical isolate BCA 14-6) | Anti-bacterial activity (MIC), strain SPN 16-2 ([8]; clinical isolate SPN 16-2)
0.125 µg/mL: Anti-bacterial activity (MIC), strain MRSE 15-1 ([1]; clinical isolate MRSE 15-1) | Anti-bacterial activity (MIC), strain MSSA 15-5 ([7]; clinical isolate MSSA 15-5)
> 16 µg/mL: Anti-bacterial activity (MIC), strain ECO+ 15-1 ([5]; clinical isolate ECO+ 15-1) | Anti-bacterial activity (MIC), strain ECO+ 15-2 ([5]; clinical isolate ECO+ 15-2) | Anti-bacterial activity (MIC), strain ECO+ 15-3 ([5]; clinical isolate ECO+ 15-3) | Anti-bacterial activity (MIC), strain ECO+ 15-4 ([5]; clinical isolate ECO+ 15-4) | Anti-bacterial activity (MIC), strain ECO− 15-1 ([5]; clinical isolate ECO− 15-1) | Anti-bacterial activity (MIC), strain ECO− 15-2 ([5]; clinical isolate ECO− 15-2) | Anti-bacterial activity (MIC), strain ECO− 15-3 ([5]; clinical isolate ECO− 15-3) | Anti-bacterial activity (MIC), strain ECO− 15-4 ([5]; clinical isolate ECO− 15-4)
2 µg/mL: Anti-bacterial activity (MIC), strain MRSE 15-2 ([1]; clinical isolate MRSE 15-2) | Anti-bacterial activity (MIC), strain BCA 14-7 ([2]; clinical isolate BCA 14-7) | Anti-bacterial activity (MIC), strain BCA 14-8 ([2]; clinical isolate BCA 14-8) | Anti-bacterial activity (MIC), strain BCA 14-10 ([2]; clinical isolate BCA 14-10) | Anti-bacterial activity (MIC), strain MRSA 15-2 ([9]; clinical isolate MRSA 15-2) | Anti-bacterial activity (MIC), strain MRSA 15-4 ([9]; clinical isolate MRSA 15-4)
10%: inhibition at 30 µM [10]
